Laboratory results reported in patent US9511120B2, “Use of the angiotensin-(1-9) peptide or derivatives thereof, use of vectors overexpressing the ACE2 enzyme that produces angiotensin-(1-9) for preparing medicaments useful for preventing, reverting, inhibiting and/or reducing hypertension and/or inducing vasodilation” (PONTIFICA UNIVERSIDAD CATÓLICA DE CHILE, priority 2012, dated 2016).

Legend:
[1] = tested on: MCP-1 mRNA; experiment: Angiotensin II infusion model: MCP-1 mRNA levels in the aortic wall; format: in vivo, rat
Description: (§1) Rats were subjected to the model of angiotensin II infusion (Grobe et al.: Am. J. Physiol. 292: H736-42, 2007). The animals were separated randomly into the following experimental groups: controls (Sham or pseudo-operated), infused with angiotensin II (300 ng/kg min), infused with angiotensin II and angiotensin-(1-9) (300 ng/kg min and 602 ng/kg min, respectively), and then infused with angiotensin II, angiotensin-(1-9) and the angiotensin-(1-7) receptor antagonist, A779 (300 ng/kg min, 602 ng/kg min, and 100 ng/kg min, respectively). In all cases the pumps operated at a flow of 0.5 μL/h and were implanted in the right jugular vein through a catheter fitted in an intrascapular subcutaneous pocket under anesthesia with ketamine HCl/xylazine (35 and 7 mg/kg i.p., respectively), for a period of 14 days.
(§2) The procedure described by Ocaranza et al. (Hypertension 48:572-8, 2006) was followed. Briefly, total RNA was isolated from the aorta using the trizol method and quantified by spectroscopy at 260 nm/280 nm. The cDNA was obtained by reverse transcription from 1.5 μg of total RNA treated with DNAse. […] The band intensity was quantified by densitometry and normalized to the 18S ribosomal RNA band.

[2] = tested on: thoracic aortas of hypertensive rats by angiotensin II infusion; experiment: Angiotensin II infusion model: aortic hypertrophy by morphometry; format: in vivo, rat; details: thoracic aorta, 14 days infusion
Description: as §1
Aortic hypertrophy was determined by morphometry. Sections of the descending aorta of 5 μm thick, which were previously fixed in Bouin (1.3% picric acid, 9.5% formaldehyde and 4.8% acetic acid) for 24 hours, embedded in paraffin and stained with hematoxylin-eosin, were used, to be examined later in a light microscope as described by Igase et al. (Am. J. Physiol. 289:H1013-9, 2005). Briefly, images of the aortas were captured by a video camera (Nikon) fixed to a microscope (Nikon), and projected on a monitor; using the software Nis-Element. Lumen areas (LA) and total areas (TA) were calculated and recorded. The tunica media area (TMA) was obtained from the difference between the TA and LA of the aorta. The tunica media thickness (TMT) was defined as the region delimited by the external elastic lamina (EEL) and internal elastic lamina (IEL).

[3] = tested on: cardiomyocyte hypertrophy induced by Ang II in vivo; experiment: Angiotensin II infusion model: cardiomyocyte hypertrophy (area and perimeter); parameters: species or system rat; details: two weeks
Description: as §1
The middle portion of the left ventricle (LV) was dehydrated at room temperature for 24 h in Bouin and then embedded in paraffin. Sections of 10-15 μm thick were taken and stained with hematoxylin-eosin, to be examined later in a light microscope in order to observe their general morphological characteristics. Cardiomyocyte size was determined according to Nakamura et al. (Circulation, 98:794-9, 1998). Briefly, images of the cells were captured using a Nikon DS Fi1 camera and projected on a monitor using a software program. The cardiomyocyte area and perimeter were measured and recorded, using the Nis-Element program (Ocaranza et al. J. Hypertens., 28:1054-64, 2010). All measurements were performed by a blinded observer, and at least 80 images of cells per animal, which were randomly selected, were analyzed.

[4] = tested on: collagen I; experiment: Angiotensin II infusion model: collagen I protein levels in the aortic wall by Western blot; format: in vivo, rat; details: aortic wall
Description: as §1
For the determination of collagen I and TGFβ-1, 30 μg and 50 μg of total proteins were used, respectively, diluted in SDS reducing buffer (50 mM tris-HCl, pH 7.4, NP-40 10%, NaCl 1M, Na deoxycholate 5%, EDTA 10 mg/mL, SDS 10%, aprotinin 1 mg/mL, leupeptin 0.1 mg/mL, PMSF 10 mM), they were then separated by SDS-PAGE gel electrophoresis 7%, and transferred to nitrocellulose membranes of […] to 300 mA for 1 h. The transfer of proteins was monitored by Ponceau red staining. […]

[5] = tested on: hypertensive rats by administration of angiotensin II; experiment: Hypertension induced by angiotensin II infusion: body mass, cardiac mass, systolic blood pressure; format: in vivo, rat
Description: as §1
Systolic blood pressure (SBP) was measured by the tail plethysmographic method in the animals. To such end, rats were lightly anesthetized with ethyl ether. The measurement was performed once a week by researchers blind to the treatment (Ocaranza et al. J. Hypertens. 20:413-20, 2002).
The degree of cardiac hypertrophy (CH) was measured by the ratio of the cardiac mass (CM), the body mass (BM) and relative cardiac mass (RCM; [CM/BM]*100) (Ocaranza et al., J. Hypertens. 28:1054-1064, 2010).
Four experimental groups of rats were established as described in Example 1. Group 1 corresponds to rats which were infused with saline (Sham). Group 2 corresponds to rats which were infused with only angiotensin II. Group 3 correspond to rats which were co-infused with angiotensin II and angiotensin-(1-9). And Group 4 corresponds to rats which were co-infused with angiotensin II, angiotensin-(1-9) and A779.

[6] = tested on: TGF-β mRNA; experiment: Angiotensin II infusion model: TGF-β mRNA levels in the aortic wall; format: in vivo, rat; details: normalized to 18S rRNA
Description: as §1, §2

[7] = tested on: angiotensin-(1-9); details: administration of the drug; cited from earlier work
[8] = tested on: rat mesenteric arteries; experiment: Contractility studies in perfused, pressurized mesenteric arteries; details: co-incubated with angiotensin-(1-9)
Description: The change in diameter of rat resistance (mesenteric) arteries was determined, they were then perfused and pressurized under physiological conditions, in response to different substances, according to a methodology previously described (Gonzalez et al. Hypertension 45:853-9, 2005). Briefly, male rats (Sprague Dawley, 150-200 g) were euthanized for dissection of mesenteric vascular territory, avoiding direct manipulation of arterial or venous tissue. Mesenteric small arteries (200-300 micrometers) were isolated, surgically eliminating adventitial tissue under a zoom stereo microscope (Olympus SZ61). The arteries were perfused intraluminally into a thermoregulated bath at controlled pressure and flow, with perfusion solution (modified Krebs, KRB) of the following composition, in mmol/L: NaCl, 130; CaCl2, 2.5; NaHCO3, 25; MgSO4, 1.2; NaH2PO4, 1.2; KCl, 4.7; glucose, 5.5, pH 7.4. Before use, KRB was gassed with a mixture of 95% O2 and 5% CO2. For perfusion, the artery was cannulated with a glass micropipette (outer diameter 164μ), secured with 5-0 silk suture. The arteries were perfused with 10-20 μL/min KRB, so as to achieve transmural pressure of 60 mmHg. After a rest period of 20 minutes, each artery was incubated in the presence of a vasoconstrictor (100 μM phenylephrine) for two minutes and an endothelial NO production agonist (1 μM acetylcholine). […]

Asp-Arg-Val-Tyr-Ile-His-Pro-Phe [angiotensin II, infused to induce hypertension in the model, reference compound]
MCP-1 mRNA levels [1]: no differences
ratio of tunica media area (TMA) to LA [2]: increase
thickness of the tunica media (TMT) [2]: increased significantly
vascular lumen area (LA) [2]: no change
cardiomyocyte cell area ([3]; left ventricle): 282±2 μm^2
cardiomyocyte perimeter ([3]; left ventricle): 66.2±0.3 μm
increase in cell area as compared to the Sham control group [3]: 37%
increase in perimeter as compared to the Sham control group [3]: 18%
increase of collagen I as compared to the Sham control group [4]: 4.5 times
SBP 1st week ([5]; 1st week of infusion): 130 ± 4 mmHg
SBP 2nd week ([5]; 2nd week of infusion): 154 ± 10 mmHg
Initial SBP ([5]; baseline, tail plethysmography): 121 ± 9 mmHg
CM ([5]; rats, infusion for 14 days): 899 ± 28 mg
RCM (MV/MC) ([5]; rats, infusion for 14 days): 348 ± 18
increase of TGF-β mRNA in relation to Sham control [6]: 12.8 times

CCOC(=O)[C@H](CCc1ccccc1)N[C@@H](C)C(=O)N1CCC[C@H]1C(=O)O [enalapril]
plasma and/or tissue levels of angiotensin-(1-9) [7]: increase

COC(=O)[C@@H](N)CCCNC(=N)N[N+](=O)[O-] [L-NAME, reference compound]
effect of nitric oxide synthase inhibitor on the vasodilator effect of angiotensin-(1-9) [8]: decreased the vasodilator effect
